{
  "source": "paper PMC4381330",
  "about": "“Identification of a novel selective agonist of PPARγ with no promotion of adipogenesis and less inhibition of osteoblastogenesis” (Scientific Reports, 2015)",
  "key": {"LXRα": {"target": "T1, LXRα (Homo sapiens, UniProt Q13133)", "T1 construct": "expressed in transfected cells; host or cells: HEK293T", "T1 sequence (Q13133 209-447 limits assumed)": "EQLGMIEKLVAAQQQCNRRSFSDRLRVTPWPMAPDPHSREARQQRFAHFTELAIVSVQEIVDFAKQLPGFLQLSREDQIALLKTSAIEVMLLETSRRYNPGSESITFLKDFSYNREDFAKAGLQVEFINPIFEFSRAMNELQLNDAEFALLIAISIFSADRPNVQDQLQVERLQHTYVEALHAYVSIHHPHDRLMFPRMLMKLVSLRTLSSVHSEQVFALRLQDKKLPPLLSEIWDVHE", "assay": "Receptor-specific transactivation, GAL4-LBD reporter in HEK293T cells", "format": "cell-based", "details": "30 μM F12016", "experimental": "(§1) HEK293T cells were cotransfected with a GAL4-pGL4-luc reporter and plasmids encoding various nuclear receptor LBDs fused with the GAL4 DNA-binding domain. […] LXR, liver X receptor; RXR, retinoid X receptor.\n(§2) The determination of nuclear receptor activation was performed as previously. Briefly, HEK293T cells were transfected with GAL4-pGL4-luc reporter plasmid and pBIND-PPARγ-LBD expression plasmid using Lipofectamine 2000 (Invitrogen) for 6 h before treatment with compounds for 20–24 h. Activity was determined by the Luciferase Assay System (Promega)."}, "LXRβ": {"target": "T2, LXRβ (Homo sapiens, UniProt P55055)", "T2 construct": "expressed in transfected cells; host or cells: HEK293T", "T2 sequence (P55055 222-460 limits assumed)": "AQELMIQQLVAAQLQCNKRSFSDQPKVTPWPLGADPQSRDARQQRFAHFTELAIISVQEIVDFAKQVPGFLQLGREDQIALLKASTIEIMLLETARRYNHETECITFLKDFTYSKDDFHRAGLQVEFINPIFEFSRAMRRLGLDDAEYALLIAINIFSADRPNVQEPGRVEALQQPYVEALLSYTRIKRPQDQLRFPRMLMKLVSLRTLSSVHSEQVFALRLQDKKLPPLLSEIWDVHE", "assay": "Receptor-specific transactivation, GAL4-LBD reporter in HEK293T cells", "format": "cell-based", "details": "30 μM F12016", "experimental": "as §1, §2"}, "PPARα": {"target": "T3, PPARα (Homo sapiens, UniProt Q07869)", "T3 construct": "expressed in transfected cells; host or cells: HEK293T", "T3 sequence (Q07869 239-466 limits assumed)": "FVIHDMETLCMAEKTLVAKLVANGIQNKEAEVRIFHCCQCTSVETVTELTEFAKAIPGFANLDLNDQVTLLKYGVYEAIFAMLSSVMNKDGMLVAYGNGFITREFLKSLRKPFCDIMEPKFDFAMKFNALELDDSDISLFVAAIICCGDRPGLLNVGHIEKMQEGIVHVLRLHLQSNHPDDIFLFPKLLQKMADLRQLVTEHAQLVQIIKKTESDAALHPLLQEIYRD", "assay": "Receptor-specific transactivation, GAL4-LBD reporter in HEK293T cells", "format": "cell-based", "details": "30 μM F12016", "experimental": "as §1, §2"}, "RXR": {"tested_on": "RXR", "assay": "Receptor-specific transactivation, GAL4-LBD reporter in HEK293T cells", "format": "cell-based", "details": "30 μM F12016", "experimental": "as §1, §2"}, "[1]": {"target": "T4, human PPARγ-LBD (coactivator peptide recruitment) (Homo sapiens, UniProt P37231)", "T4 construct": "incubated with GST-fused human PPARγ-LBD, terbium-labeled anti-GST antibody; purchased Invitrogen", "T4 sequence (P37231 238-503 limits assumed)": "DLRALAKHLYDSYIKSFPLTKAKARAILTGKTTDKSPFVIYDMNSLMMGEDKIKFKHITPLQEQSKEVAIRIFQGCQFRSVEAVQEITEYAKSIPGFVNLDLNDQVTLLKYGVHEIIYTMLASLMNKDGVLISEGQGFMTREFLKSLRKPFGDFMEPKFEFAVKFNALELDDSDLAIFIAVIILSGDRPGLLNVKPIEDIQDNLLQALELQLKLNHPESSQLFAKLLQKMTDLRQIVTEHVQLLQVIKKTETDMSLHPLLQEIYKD", "assay": "LanthaScreen TR-FRET coactivator peptide recruitment assay", "format": "biochemical", "experimental": "PPARγ coregulator peptide interaction assay was performed by the LanthaScreen TR-FRET PPARγ Coactivator Assay Kit (Invitrogen) according to the manufacturer's instructions. Serial concentrations of compounds were incubated with GST-fused human PPARγ-LBD, terbium-labeled anti-GST antibody and fluorescein-labeled peptide for 4 h. The measurement and data calculation were as above."}, "3T3-L1 adipocytes": {"tested_on": "3T3-L1 adipocytes", "assay": "2-NBDG glucose uptake assay in mature 3T3-L1 adipocytes", "format": "cell-based, mouse", "details": "1, 10, 30 μM, 24 h, 0.05 nM insulin, vs DMSO", "experimental": "(§3) Glucose uptake activity was determined by measuring the uptake of 2-NBDG (2-(N-(7-nitrobenz-2-oxa-1, 3-diazol-4-yl)amino)-2-deoxyglucose, Invitrogen). […] Glucose uptake was initiated by addition of 1 mM 2-NBDG diluted in PBS. After 1 h, it was terminated by removing the contents of the wells and washing the cells with PBS. The glucose uptake was quantified by measuring the fluorescence intensity of cell lysates (prepared with neutral lysis buffer) at 485 nm excitation and 528 nm emission, and normalized to the corresponding protein content."}, "L02 normal hepatocytes": {"tested_on": "L02 normal hepatocytes", "assay": "2-NBDG glucose uptake assay in L02 cells", "format": "cell-based", "details": "24 h, absence or presence of insulin", "experimental": "as §3"}, "[2]": {"target": "T5, CDK5-mediated phosphorylation of PPARγ at Ser273 (Homo sapiens, UniProt P37231)", "T5 construct": "0.5 μg purified PPARγ-LBD protein was incubated with 50 ng CDK5/p25 kinase (Millipore); Millipore (CDK5/p25 only)", "T5 sequence (P37231 238-503 limits assumed)": "T4 sequence (P37231 238-503 limits assumed)", "assay": "In vitro CDK5 assay of the PPARγ LBD (western blot)", "format": "biochemical", "details": "to a similar extent as rosiglitazone", "experimental": "The in vitro CDK assay was performed as described previously. Briefly, 0.5 μg purified PPARγ-LBD protein was incubated with 50 ng CDK5/p25 kinase (Millipore) in CDK assay buffer (Cell Signaling Technology, Danvers, MA, USA), followed by addition of 50 μM ATP and incubation for 30 min at room temperature. PPARγ-LBD was pre-incubated with test compounds for 30 min before performing the reaction. Phosphorylation of PPARγ Ser273 was analyzed by western blotting with an anti-CDK substrate antibody to detect phosphor-serine in the consensus motif for CDK substrate proteins (K/R-S-P-K/R) (Cell Signaling Technology)."}, "diabetic KKAy mice": {"tested_on": "diabetic KKAy mice", "assay": "Diabetic KKAy mice, 21 days treatment (fasting blood glucose, OGTT, ITT, body weight)", "description": "Fasting blood glucose was measured with Onetoch Ultra Teststrip (Johnson & Johnson) at day 0, 3, 7, 14, 21, and body weight were monitored during these days.\nAfter 14 days of treatment, oral glucose tolerance test (OGTT) was performed. Mice were fasted for 6 h with free access to water. 2 g/kg of glucose was given by gavage and blood glucose was measured at 0, 30, 60, 90, and 120 min.\nAfter 21 days of feeding, insulin tolerance test (ITT) was carried out. Mice were fasted for 4 h before being injected 1 U/kg of recombinant human insulin (Novo Nordisk) subcutaneously, and blood glucose was measured at 0, 40, 90, and 120 min after insulin injection."}},
  "data": [
    {"substance": "2-[2-(1, 2-dimethyl-1H-indol-3-yl)-2-oxo-acetylamino]-benzamide [Compound F12016]", "values": [
      {"measurement": "transactivation of LXRα", "setting": "LXRα", "result": "no effects"},
      {"measurement": "transactivation of LXRβ", "setting": "LXRβ", "result": "no effects"},
      {"measurement": "transactivation of PPARα", "setting": "PPARα", "result": "no effects"},
      {"measurement": "transactivation of RXR", "setting": "RXR", "result": "no effects"},
      {"measurement": "EC50/IC50 CBP", "setting": "[1]; cofactor peptide CBP", "result": 349, "unit": "nM"},
      {"measurement": "Efficacy CBP", "setting": "[1]; cofactor peptide CBP, maximum recruitment relative to rosiglitazone", "result": 10, "unit": "%"},
      {"measurement": "EC50/IC50 PGC-1α", "setting": "[1]; cofactor peptide PGC-1α", "result": 21.81, "unit": "µM"},
      {"measurement": "Efficacy PGC-1α", "setting": "[1]; cofactor peptide PGC-1α, maximum recruitment relative to rosiglitazone", "result": 57, "unit": "%"},
      {"measurement": "EC50/IC50 RAP250", "setting": "[1]; cofactor peptide RAP250", "result": 5.765, "unit": "µM"},
      {"measurement": "Efficacy RAP250", "setting": "[1]; cofactor peptide RAP250, maximum recruitment relative to rosiglitazone", "result": 25, "unit": "%"},
      {"measurement": "EC50/IC50 SRC1", "setting": "[1]; cofactor peptide SRC1", "result": 17.65, "unit": "µM"},
      {"measurement": "Efficacy SRC1", "setting": "[1]; cofactor peptide SRC1, maximum recruitment relative to rosiglitazone", "result": 26, "unit": "%"},
      {"measurement": "EC50/IC50 SRC3", "setting": "[1]; cofactor peptide SRC3", "result": 15.06, "unit": "µM"},
      {"measurement": "Efficacy SRC3", "setting": "[1]; cofactor peptide SRC3, maximum recruitment relative to rosiglitazone", "result": 23, "unit": "%"},
      {"measurement": "EC50/IC50 TIF2", "setting": "[1]; cofactor peptide TIF2", "result": 6.437, "unit": "µM"},
      {"measurement": "Efficacy TIF2", "setting": "[1]; cofactor peptide TIF2, maximum recruitment relative to rosiglitazone", "result": 17, "unit": "%"},
      {"measurement": "EC50/IC50 TRAP220", "setting": "[1]; cofactor peptide TRAP220", "result": 5.132, "unit": "µM"},
      {"measurement": "Efficacy TRAP220", "setting": "[1]; cofactor peptide TRAP220, maximum recruitment relative to rosiglitazone", "result": 17, "unit": "%"},
      {"measurement": "recruitment of SRC 1 and 3 and RAP250 to PPARγ", "setting": "[1]; span over the three cofactors", "result": "22–27 % of rosiglitazone"},
      {"measurement": "insulin-stimulated glucose uptake (2-NBDG)", "setting": "3T3-L1 adipocytes", "result": "enhanced the insulin-stimulated glucose uptake"},
      {"measurement": "insulin sensitivity and glucose transport (2-NBDG)", "setting": "L02 normal hepatocytes", "result": "significantly increased insulin sensitivity and promoted glucose transport"},
      {"measurement": "CDK5-mediated phosphorylation of PPARγ", "setting": "[2]", "result": "effectively blocked CDK5-mediated phosphorylation of PPARγ"},
      {"measurement": "fasting blood glucose", "setting": "diabetic KKAy mice; F12016 75 mg/kg by gavage once daily, day 3, 7, 14 and 21, vs vehicle", "result": "significantly reduced fasting blood glucose"},
      {"measurement": "glucose tolerance (OGTT)", "setting": "diabetic KKAy mice; after 14 days of treatment, 2 g/kg glucose, F12016 75 mg/kg", "result": "significantly improved glucose tolerance"},
      {"measurement": "blood glucose after insulin injection (ITT)", "setting": "diabetic KKAy mice; after 21 days, insulin 1 IU/kg, F12016 75 mg/kg, rosiglitazone 5 mg/kg", "result": "significantly reduced blood glucose"},
      {"measurement": "average body weight", "setting": "diabetic KKAy mice; after 21 days, F12016 75 mg/kg, rosiglitazone 5 mg/kg, vs vehicle", "result": "much lower than that of vehicle controls"}
    ]}
  ]
}
